Measured values: patent publication US20160287696A1, “PAN POLLEN IMMUNOGENS AND METHODS AND USES FOR IMMUNE RESPONSE MODULATION” (LA JOLLA INSTITUTE FOR ALLERGY AND IMMUNOLOGY, priority 2013, published 2016)

Assays:
[1] = tested on: cultured PBMCs of the allergic donors; experiment: ELISPOT of IL-5 or IFNg production by cultured PBMCs of TG allergic donors in response to peptide; format: cell-based, human; conditions: for # Th+: Table 7, peptides per NTGA recognized by T cells of grass allergic donors (n=20); for No of PG+ & th+ peptides per NTGA / No of PP & Th+ peptides per NTGA: Table 6; for No of PG+ & th+ peptides per NTGA: PG+ peptides recognized by T cells of grass allergic donors (n=20); for No of PP & Th+ peptides per NTGA: PP peptides recognized by T cells of grass allergic donors (n=20); for NTGA's containing at least one T cell epitope, Th+ (Col 2): NTGA number given = criterion met, TG allergic donors n=20
Excerpt: Table 1 indicates for each of the 397 PG+ peptides in which non-grass pollen species a matching peptide with either less than 3, less than 2 or zero mismatches are found. The number of TG grass allergic donors (n=20) with an in vitro T cell response to the TG peptide sequence is also shown.
A set of 93 proteins from Timothy grass (TG) pollen and the assembly of 822 peptides (15 mers) predicted to promiscuously bind HLA class II molecules shown in Table 9 and the immune reactivity in allergic donors have been reported in PCT application WO 2013/119863. […] Immune reactivity was determined by the production of IL-5 or IFNg from cultured PBMCs of the allergic donors in response to stimulation with a peptide and IL-5 and IFNg were measured by ELISPOT as described in Oseroff C et al, 2010.
In short, T cell immune reactivity was determined using PBMCs isolated from study participants and stored in liquid nitrogen until further use. For experimental testing, PBMCs were thawed and expanded in vitro with TG pollen extract (50 μg/mL) or the peptide pool ([…]). The TG extract and peptide pools had each been previously titrated to determine optimal stimulation concentrations.
Cytokine production by cultured PBMCs in response to antigen stimulation was measured by ELISPOT. Cells (1×10^5 cells/well) were plated and incubated with peptide (10 μg/mL), the peptide pool (5 μg/mL), or the TG extract (50 μg/mL). Phytohaemagglutinin (10 μg/mL) and medium alone were used as positive and negative controls, respectively. Samples were considered to produce a cytokine if 100 spot-forming cells (SFCs)/10^6 PBMCs were detected, with P .05 and a stimulation index of 2 or more. Criteria for individual peptides were the same except that a minimum of 20 SFCs were required for a sample to be counted as positive.
Table 3 lists the 397 PG+ peptides and indicates for each non-grass pollen species whether a matching peptide with either less than 3, less than 2 or zero mismatches could be detected. The immune reactivity of the TG peptide was assessed as the number of TG grass allergic donors (n=20) having in vitro T cell response against the TG peptide.

[2] = tested on: PBMCs from Phl p reactive donors; experiment: Cross-reactivity: IL-5 ELISPOT of PBMCs expanded 14 days with individual peptides, response to pollen extracts; format: cell-based, human
Procedure: For each peptide, TG allergic donors were selected that reacted to the peptide after expanding PBMCs in vitro with TG extract. […] Reponses to extracts and peptide pools are expressed as the relative fraction of the response to the peptide itself, and capped at 100%.
Each peptide was used to stimulate cells and cross reactivity was tested for extracts from each pollen species. The number of mismatches (# of mm) for each peptide compared to the pollen species and the reactivity of the extracts as a percentage of the reactivity compared to the peptide are shown.
PBMCs from Phl p reactive donors were expanded with individual PG+ peptides as well as peptides derived from major allergens of Phl p for 14 days (peptides shown in Table 10). For each peptide, the mismatch to a corresponding sequence in a non-grass pollen species or a pollen species other than Phl p were determined. Cytokine IL-5 responses were measured in response to the peptide itself, Phl p extract and extracts of the other pollen species. Reponses to extracts and peptide pools were expressed as the relative fraction of the response to the peptide itself and plotted as a function of conservation of the peptide in the different extracts (FIG. 1).

| Substance | # Th+ [1] | No of PG+ & th+ peptides per NTGA [1] | No of PP & Th+ peptides per NTGA [1] | other results |
| --- | --- | --- | --- | --- |
| 74 (GRFKSIPSIVELDSL) [compound 74] | 0 | – | – | – |
| 41 (LVSVEDIVLQHWATY) [compound 41] | 0 | – | – | – |
| 63 (FKSIEKFKIFNTNNL) [compound 63] | 0 | – | – | – |
| 15 (GASTGVYEALELRDG) [compound 15] | 0 | – | – | – |
| 78 (GRFKDIFQAVYEADW) [compound 78] | 0 | – | – | – |
| 60 (SDNLGAIVDMKILNH) [compound 60] | 0 | 0 | 0 | – |
| 81 (NSIASIFAWTRGLAH) [compound 81] | 0 | – | – | – |
| 93 (LGEAPYKFKSALEAV) [compound 93] | 0 | – | – | – |
| 83 (LNTEEFIDAVAAELQ) [compound 83] | 0 | 11 | 4 | NTGA's containing at least one T cell epitope, Th+ (Col 2) [1]: 83 |
| 68 (AAIRFFDHAIGINVP) [compound 68] | 0 | – | – | – |
| 45 (DALSPLVDVALKLSK) [compound 45] | 0 | – | – | – |
| 67 (VKVLQLETAAGAAIR) [compound 67] | 0 | – | – | – |
| 54 (FLDLIVLQIESLNKK) [compound 54] | – | – | – | NTGA's containing at least one T cell epitope, Th+ (Col 2) [1]: 54 |
| 57 (LKIVEKYANSSIDIH) [compound 57] | 0 | 0 | 0 | – |
| 46 (LDIAVRLLEPIKEQV) [compound 46] | 1 | – | – | – |
| 80 (VQSDFLAQGFGSLGL) [compound 80] | 0 | – | – | – |
| 88 (IKLKNMLFHTARINC) [compound 88] | 0 | – | – | – |
| 84 (KSLVRAFMWDSGSTV) [compound 84] | 0 | 4 | 3 | NTGA's containing at least one T cell epitope, Th+ (Col 2) [1]: 84 |
| 21 (VVSKTFTTAETMLNA) [compound 21] | 0 | 0 | 0 | – |
| 23 (RYSVCSAVGVLPLSL) [compound 23] | 0 | – | – | – |
| 18 (ENRSVLHVALRAPRD) [compound 18] | 0 | 0 | 0 | – |
| 38 (AVQSIPYFASGLKGV) [compound 38] | 0 | 0 | 0 | – |

| Substance | # Th+ [1] | No of PG+ & th+ peptides per NTGA [1] | No of PP & Th+ peptides per NTGA [1] | other results |
| --- | --- | --- | --- | --- |
| 70 (RFLPVKATSDLQLVQ) [compound 70] | 0 | – | – | – |
| 58 (GKLDLLLSQGKEYVF) [compound 58] | 0 | 0 | 0 | – |
| 66 (IKRLVEADALKMEII) [compound 66] | 0 | – | – | – |
| 82 (DNARLLDFTQKLEDA) [compound 82] | 0 | – | – | – |
| 75 (GTIRNIINGTVFREP) [compound 75] | 0 | – | – | – |
| 17 (VDNVNSIIGPALIGK) [compound 17] | 0 | – | – | – |
| 72 (VQSDLYTLVDGFVTR) [compound 72] | 0 | 2 | 1 | NTGA's containing at least one T cell epitope, Th+ (Col 2) [1]: 72 |
| 37 (SDSVAIIAANAVQSI) [compound 37] | 0 | – | – | – |
| 79 (WYEHRLIDDMVAYAL) [compound 79] | 0 | 1 | 0 | NTGA's containing at least one T cell epitope, Th+ (Col 2) [1]: 79 |
| 55 (LNKKYGSNVPLLLMN) [compound 55] | 0 | 0 | 0 | – |
| 35 (RNMVLGKRFFVTPSD) [compound 35] | 0 | 2 | 1 | NTGA's containing at least one T cell epitope, Th+ (Col 2) [1]: 35 |
| 16 (QTELDNFMVHQLDGT) [compound 16] | 0 | 2 | 2 | NTGA's containing at least one T cell epitope, Th+ (Col 2) [1]: 16 |
| 28 (NGQHSFYQLIHQGRV) [compound 28] | 0 | 0 | 0 | – |
| 36 (KRFFVTPSDSVAIIA) [compound 36] | 0 | 0 | 0 | – |
| 14 (LGAAAVYAGLKFRAP) [compound 14] | 0 | – | – | – |
| 48 (ILSYADFYQLAGVVA) [compound 48] | 0 | 0 | 0 | – |
| 31 (QGFIWGINSFDQWGV) [compound 31] | 0 | 0 | 0 | – |
| 92 (SVGFVETLENDLAQL) [compound 92] | 0 | – | – | – |
| 50 (NPLIFDNSYFTELLT) [compound 50] | 0 | 0 | 0 | – |
| 71 (TSDLQLVQSDLYTLV) [compound 71] | 0 | – | – | – |
| 40 (GIWAVLAWLSIIAYK) [compound 40] | 0 | 2 | 2 | NTGA's containing at least one T cell epitope, Th+ (Col 2) [1]: 40 |
| FKAAVAAAAGAPPAD | – | – | – | Amb p % Reactivity ([2]; Amb p (weed) pollen extract, reactivity of extract as percentage of reactivity to the peptide, PBMCs expanded 14 days with the peptide): 15%; Ant o % Reactivity ([2]; Ant o (grass) pollen extract, reactivity of extract as percentage of reactivity to the peptide, PBMCs expanded 14 days with the peptide): 62%; Bet v % Reactivity ([2]; Bet v (tree) pollen extract, reactivity of extract as percentage of reactivity to the peptide, PBMCs expanded 14 days with the peptide): 22%; Cyn d % Reactivity ([2]; Cyn d (grass) pollen extract, reactivity of extract as percentage of reactivity to the peptide, PBMCs expanded 14 days with the peptide): 31%; Lol p % Reactivity ([2]; Lol p (grass) pollen extract, reactivity of extract as percentage of reactivity to the peptide, PBMCs expanded 14 days with the peptide): 68%; Ole e % Reactivity ([2]; Ole e (tree) pollen extract, reactivity of extract as percentage of reactivity to the peptide, PBMCs expanded 14 days with the peptide): 39%; Phl p % Reactivity ([2]; Phl p (grass) pollen extract, reactivity of extract as percentage of reactivity to the peptide, PBMCs expanded 14 days with the peptide): 2%; Pla l % Reactivity ([2]; Pla l (weed) pollen extract, reactivity of extract as percentage of reactivity to the peptide, PBMCs expanded 14 days with the peptide): 2%; Poa p % Reactivity ([2]; Poa p (grass) pollen extract, reactivity of extract as percentage of reactivity to the peptide, PBMCs expanded 14 days with the peptide): 26%; Que a % Reactivity ([2]; Que a (tree) pollen extract, reactivity of extract as percentage of reactivity to the peptide, PBMCs expanded 14 days with the peptide): 6%; Controls, Irrelevant Pool ([2]; control: response to irrelevant pool of cells expanded with the peptide): 23; Controls, Relevant Pool ([2]; control: response to relevant pool of cells expanded with the peptide): 100; % Reactivity, Fra e ([2]; reactivity of Fra e (tree) pollen extract as percentage of the reactivity to the peptide, cells expanded with the peptide for 14 days): 38% |
